US20260022142A1, “MACROCYCLIC IMMUNOMODULATORS” (Bristol-Myers Squibb Company, priority 2022, published 2026)
Numbered stars: 1 amine (or outer) side, 2 acyl side, 3 side chain; on linkers, the order of the positions; unused ones are H or OH. Bridge positions count the residues as written; N and C are the ends. Square brackets hold non-standard residues; d marks the D form. Peptide text beside a SMILES is read from it. * marks the point of attachment. Bip = N[C@@H](Cc1ccc(-c2ccccc2)cc1)C(=O)O; Phe(3-Me) = Cc1cccc(C[C@H](N)C(=O)O)c1; X16 = O=C(C1CCC(CN[*:1])CC1)[*:2]; X6 = O=C(Cc1ccc(CN[*:1])cc1)[*:2]; Cha = N[C@@H](CC1CCCCC1)C(=O)O; Cit = NC(=O)NCCC[C@H](N)C(=O)O; Carboxymethyl = O=C(O)C*; Orn = NCCC[C@H](N)C(=O)O; Aun = NCCCCCCCCCCC(=O)O; Dab = NCC[C@H](N)C(=O)O; Dap = NC[C@H](N)C(=O)O; AEEA = NCCOCCOCC(=O)O

What follows are compounds tested against T1, PD-1/PD-L1 interaction (PE-labeled human PD-L1-Ig binding to Jurkat cell line over-expressing human PD-1) (Homo sapiens, UniProt Q15116) (assay: Jurkat-PD-1 Cell Binding High-Content Screening Assay (CBA)). Conditions: Jurkat cell line over-expressing human PD-1; PE-labeled PD-L1-Ig 20 nM final; read-out: Jurkat hPD1-PDL1 IC50.
T1 construct: expressed in transfected cells; host or cells: Jurkat
T1 sequence (Q15116 25-288): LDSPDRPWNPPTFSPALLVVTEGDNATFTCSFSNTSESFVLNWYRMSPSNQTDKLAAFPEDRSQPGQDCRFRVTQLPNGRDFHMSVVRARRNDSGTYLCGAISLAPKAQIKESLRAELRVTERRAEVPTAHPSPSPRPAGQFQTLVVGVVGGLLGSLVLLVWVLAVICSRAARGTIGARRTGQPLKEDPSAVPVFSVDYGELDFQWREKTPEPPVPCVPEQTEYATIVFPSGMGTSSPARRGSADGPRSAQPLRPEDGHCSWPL
Assay type: cell-based
In short: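 Binding of fluorescent PD-L1-Ig (20 nM final) to Jurkat-PD-1 cells was measured by automated imaging after 1 h, following a 2 h compound pre-treatment at 37° C.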

**Q.** With Cc1cccc(C[C@@H]2NC(=O)[C@H](CC(=O)O)NC(=O)[C@H](Cc3ccc(OCC(=O)O)cc3)NC(=O)[C@H](CN)NC(=O)CSC[C@@H](C(=O)NCC3CCC(C(=O)NCCCCCCCCCCC(=O)O)CC3)NC(=O)[C@H]([C@@H](C)O)NC(=O)[C@H](C(C)C)NC(=O)[C@H](CC3CCCCC3)NC(=O)[C@H](CCN)NC(=O)[C@@H](CC(C)C)NC(=O)[C@H](CCCN)NC(=O)[C@H](CCCNC(N)=O)NC(=O)[C@H](Cc3ccc(-c4ccccc4)cc3)NC(=O)[C@H](C(C)C)NC2=O)c1 (stereo partly drawn) [Compound 2623] ({CH2CO}-[Dap]Y(Carboxymethyl)D[Phe(3-Me)]V[Bip][Cit][Orn][dL][Dab][Cha]VTC[X16][Aun]-OH; thioether N-14) as the compound, how does the IC50 read?
**A.** 0.0275 µM

**Q.** Cc1cccc(C[C@@H]2NC(=O)[C@H](CC(=O)O)NC(=O)[C@H](Cc3ccc(OCC(=O)O)cc3)NC(=O)[C@H](CN)NC(=O)CSC[C@@H](C(=O)NCc3ccc(CC(=O)NCCCCCCCCCCC(=O)O)cc3)NC(=O)[C@H]([C@@H](C)O)NC(=O)[C@H](C(C)C)NC(=O)[C@H](CC3CCCCC3)NC(=O)[C@H](CCN)NC(=O)[C@@H](CC(C)C)NC(=O)[C@H](CCCN)NC(=O)[C@H](CCCNC(N)=O)NC(=O)[C@H](Cc3ccc(-c4ccccc4)cc3)NC(=O)[C@H](C(C)C)NC2=O)c1 [Compound 2624] ({CH2CO}-[Dap]Y(Carboxymethyl)D[Phe(3-Me)]V[Bip][Cit][Orn][dL][Dab][Cha]VTC[X6][Aun]-OH; thioether N-14) was tested. Which IC50 did it give?
**A.** 0.0345 µM

**Q.** For CC(C)C[C@H]1NC(=O)[C@H](CCCN)NC(=O)[C@H](CCCNC(N)=O)NC(=O)[C@H](Cc2ccc(-c3ccccc3)cc2)NC(=O)[C@H](C(C)C)NC(=O)[C@H](Cc2c[nH]c3ccccc23)NC(=O)[C@H](CC(=O)O)NC(=O)[C@H](Cc2ccc(OCC(=O)O)cc2)NC(=O)[C@H](CN)NC(=O)CSC[C@@H](C(=O)NCCOCCOCC(=O)N[C@@H](CCN)C(=O)NCCCCCCCCCCC(=O)O)NC(=O)[C@H](CCCCN)NC(=O)[C@H](C(C)C)NC(=O)[C@H](CC2CCCCC2)NC(=O)[C@H](CCN)NC1=O [Compound 2625] ({CH2CO}-[Dap]Y(Carboxymethyl)DWV[Bip][Cit][Orn][dL][Dab][Cha]VKC[AEEA][Dab][Aun]-OH; thioether N-14), which IC50 is on record?
**A.** 0.0167 µM

**Q.** Which IC50 does the source give for CC[C@H](C)[C@@H]1NC(=O)[C@H](Cc2ccc(-c3ccccc3)cc2)NC(=O)[C@H](C(C)C)NC(=O)[C@H](Cc2c[nH]c3ccccc23)NC(=O)[C@H](CC(=O)O)NC(=O)[C@H](Cc2ccc(OCC(=O)O)cc2)NC(=O)[C@H](CN)NC(=O)CSC[C@@H](C(=O)NCCOCCOCC(=O)N[C@@H](CCN)C(=O)NCCCCCCCCCCC(=O)O)NC(=O)[C@H](CCCCN)NC(=O)[C@H](C(C)C)NC(=O)[C@H](CC2CCCCC2)NC(=O)[C@H](CCN)NC(=O)[C@@H](CC(C)C)NC(=O)[C@H](CCCN)NC1=O [Compound 2626] ({CH2CO}-[Dap]Y(Carboxymethyl)DWV[Bip]I[Orn][dL][Dab][Cha]VKC[AEEA][Dab][Aun]-OH; thioether N-14) here?
**A.** 0.0119 µM

**Q.** Which IC50 does the source give for Cc1cccc(C[C@@H]2NC(=O)[C@H](CC(=O)O)NC(=O)[C@H](Cc3ccc(OCC(=O)O)cc3)NC(=O)[C@H](CN)NC(=O)CSC[C@@H](C(=O)NCCOCCOCC(=O)N[C@@H](CCN)C(=O)NCCCCCCCCCCC(=O)O)NC(=O)[C@H](CN)NC(=O)[C@H](C(C)C)NC(=O)[C@H](CC3CCCCC3)NC(=O)[C@H](CCN)NC(=O)[C@@H](CC(C)C)NC(=O)[C@H](CCCN)NC(=O)[C@H](CCCNC(N)=O)NC(=O)[C@H](Cc3ccc(-c4ccccc4)cc3)NC(=O)[C@H](C(C)C)NC2=O)c1 [Compound 2627] ({CH2CO}-[Dap]Y(Carboxymethyl)D[Phe(3-Me)]V[Bip][Cit][Orn][dL][Dab][Cha]V[Dap]C[AEEA][Dab][Aun]-OH; thioether N-14) here?
**A.** 0.0141 µM
